Reference: patent US11000033B2, “Ketone or oxime compound, and herbicide” (NISSAN CHEMICAL CORPORATION, priority 2014, dated 2021)

How the values were obtained:
Assay type in all cases: in vivo
[1] = test system: Echinochloa oryzacola Vasing.; test: Test Example 1: herbicidal activity, application before weed generation in submerged conditions (symbol A); settings: application herbicide amount 320 g/ha
Procedure, shortened: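 Scores run 0 to 5 by herbicidal ratio, with 5 meaning 90% or more and 0 meaning 5% or lower, read 3 weeks after treatment. Compound was applied as a diluted emulsion to the water surface of submerged alluvial-soil pots on the day weed seeds were sown.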

[2] = test system: Echinochloa crus-galli var. crus-galli; test: Test Example 3: herbicidal effect by foliage application, Wagner pot (symbol H); settings: application herbicide amount 320 g/ha
Procedure, shortened: (§1)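 Steps: fill pot with alluvial soil; add water to 0.1–0.5 cm depth; sow weed and rice seed; grow 14 days at 25–30 °C; spray diluted emulsion over the leaves; rate effect after 3 weeks.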

Leptochloa chinensis = test: Test Example 3: herbicidal effect by foliage application, Wagner pot (symbol D); settings: application herbicide amount 320 g/ha
Procedure, shortened: as §1

Digitaria ciliaris [3] = test: Test Example 4: herbicidal effect by soil treatment (symbol F)
Procedure, shortened: (§2)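 Seeds were sown in sterilized diluvial soil, covered with about 1.5 cm of soil, and the soil surface was sprayed with a water-diluted emulsion of the compound at a predetermined rate. Plants grew in a greenhouse at 25° C. to 30° C.; effects were scored visually 3 weeks after application.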

Setaria viridis [4] = test: Test Example 4: herbicidal effect by soil treatment (symbol G)
Procedure, shortened: as §2

Avena fatua = test: Test Example 4: herbicidal effect by soil treatment (symbol I)
Procedure, shortened: as §2

Alopecurus myosuroides = test: Test Example 4: herbicidal effect by soil treatment (symbol J)
Procedure, shortened: as §2

Amaranthus retroflexus = test: Test Example 4: herbicidal effect by soil treatment (symbol N)
Procedure, shortened: as §2

Veronica persica = test: Test Example 4: herbicidal effect by soil treatment (symbol R)
Procedure, shortened: as §2

rapeseed = test: Test Example 4: effect on crop by soil treatment (symbol g)
Procedure, shortened: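 Seeds were sown in spots on sterilized diluvial soil in a plastic box and covered with about 1.5 cm of soil. Plants were then grown in a greenhouse at 25° C. to 30° C.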

Digitaria ciliaris [5] = test: Test Example 5: herbicidal effect by foliage application, plastic box (symbol F); settings: 320 g/ha, 3 weeks after application
Procedure, shortened: (§3)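 After sowing into sterilized diluvial soil and growing two weeks under glass at 25° C. to 30° C., seedlings receive a uniform foliar spray of diluted emulsion. Damage is judged visually three weeks on.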

Setaria viridis [6] = test: Test Example 5: herbicidal effect by foliage application, plastic box (symbol G); settings: 320 g/ha, 3 weeks after application
Procedure, shortened: as §3

Lolium multiflorum Lam. = test: Test Example 5: herbicidal effect by foliage application, plastic box (symbol K); settings: 320 g/ha, 3 weeks after application
Procedure, shortened: as §3

Apera spica-venti = test: Test Example 5: herbicidal effect by foliage application, plastic box (symbol L); settings: 320 g/ha, 3 weeks after application
Procedure, shortened: as §3

Abutilon theophrasti = test: Test Example 5: herbicidal effect by foliage application, plastic box (symbol M); settings: 320 g/ha, 3 weeks after application
Procedure, shortened: as §3

Chenopodium album = test: Test Example 5: herbicidal effect by foliage application, plastic box (symbol O); settings: 320 g/ha, 3 weeks after application
Procedure, shortened: as §3

Stellaria media = test: Test Example 5: herbicidal effect by foliage application, plastic box (symbol P); settings: 320 g/ha, 3 weeks after application
Procedure, shortened: as §3

Galium spurium = test: Test Example 5: herbicidal effect by foliage application, plastic box (symbol Q); settings: 320 g/ha, 3 weeks after application
Procedure, shortened: as §3

rice plant = test: Test Example 5: effect on crop by foliage application, plastic box (symbol b); settings: 320 g/ha, 3 weeks after application
Procedure, shortened: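 In a plastic box 7 cm deep filled with sterilized diluvial soil, seeds of crops and weeds such as Digitaria ciliaris, Avena fatua and Amaranthus retroflexus are sown in spots and covered with about 1.5 cm of soil before greenhouse growth at 25–30° C.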

[7] = application herbicide amount 320 g/ha

| SMILES | Herbicidal effect grade, A: Echinochloa oryzacola Vasing. [1] | herbicidal effect on H (Echinochloa crus-galli var. crus-galli), grade 0-5 [2] | herbicidal effect on D (Leptochloa chinensis), grade 0-5 (Leptochloa chinensis) | F: Digitaria ciliaris, herbicidal effect grade (Digitaria ciliaris [3]; [7]) | G: Setaria viridis, herbicidal effect grade (Setaria viridis [4]; [7]) | I: Avena fatua, herbicidal effect grade (Avena fatua; [7]) | J: Alopecurus myosuroides, herbicidal effect grade (Alopecurus myosuroides; [7]) | N: Amaranthus retroflexus, herbicidal effect grade (Amaranthus retroflexus; [7]) | R: Veronica persica, herbicidal effect grade (Veronica persica; [7]) | g: rapeseed, effect on crop grade (rapeseed; [7]) | F: Digitaria ciliaris, herbicidal effect grade (Digitaria ciliaris [5]) | G: Setaria viridis, herbicidal effect grade (Setaria viridis [6]) | K: Lolium multiflorum Lam., herbicidal effect grade (Lolium multiflorum Lam.) | L: Apera spica-venti, herbicidal effect grade (Apera spica-venti) | M: Abutilon theophrasti, herbicidal effect grade (Abutilon theophrasti) | O: Chenopodium album, herbicidal effect grade (Chenopodium album) | P: Stellaria media, herbicidal effect grade (Stellaria media) | Q: Galium spurium, herbicidal effect grade (Galium spurium) | b: directly sowed rice plant, effect on crop grade (rice plant) | other results |
| --- | --- | --- | --- | --- | --- | --- | --- | --- | --- | --- | --- | --- | --- | --- | --- | --- | --- | --- | --- | --- |
| CON=C(C)CC1CC(OS(=O)(=O)CCCCl)=C(c2c(C)cc(C)cc2C)C1=O (stereo not shown) [1-142] | 5 (Herbicidal ratio of 90% or more (almost completely withered)) | 5 (Herbicidal ratio of 90% or more (almost completely withered)) | 5 (Herbicidal ratio of 90% or more (almost completely withered)) |  |  |  |  |  |  |  |  |  |  |  |  |  |  |  |  | F: Digitaria ciliaris, herbicidal effect grade (Digitaria ciliaris [3]; 320 g/ha): 5 (Herbicidal ratio of 90% or more (almost completely withered)); G: Setaria viridis, herbicidal effect grade (Setaria viridis [4]; 320 g/ha): 5 (Herbicidal ratio of 90% or more (almost completely withered)); I: Avena fatua, herbicidal effect grade (Avena fatua; 320 g/ha): 3 (Herbicidal ratio of 40% or higher and lower than 70%); J: Alopecurus myosuroides, herbicidal effect grade (Alopecurus myosuroides; 320 g/ha): 5 (Herbicidal ratio of 90% or more (almost completely withered)); N: Amaranthus retroflexus, herbicidal effect grade (Amaranthus retroflexus; 320 g/ha): 0 (Herbicidal ratio of 5% or lower (almost no effect)); R: Veronica persica, herbicidal effect grade (Veronica persica; 320 g/ha): 0 (Herbicidal ratio of 5% or lower (almost no effect)); g: rapeseed, effect grade on crop (rapeseed; 320 g/ha): 3 (Herbicidal ratio of 40% or higher and lower than 70%); F: Digitaria ciliaris, herbicidal effect (criteria 0-5) (Digitaria ciliaris [5]): 5 (Herbicidal ratio of 90% or more (almost completely withered)); G: Setaria viridis, herbicidal effect (criteria 0-5) (Setaria viridis [6]): 5 (Herbicidal ratio of 90% or more (almost completely withered)); K: Lolium multiflorum Lam., herbicidal effect (criteria 0-5) (Lolium multiflorum Lam.): 5 (Herbicidal ratio of 90% or more (almost completely withered)); L: Apera spica-venti, herbicidal effect (criteria 0-5) (Apera spica-venti): 5 (Herbicidal ratio of 90% or more (almost completely withered)); M: Abutilon theophrasti, herbicidal effect (criteria 0-5) (Abutilon theophrasti): 4 (Herbicidal ratio of 70% or higher and lower than 90%); O: Chenopodium album, herbicidal effect (criteria 0-5) (Chenopodium album): 2 (Herbicidal ratio of 20% or higher and lower than 40%); P: Stellaria media, herbicidal effect (criteria 0-5) (Stellaria media): 3 (Herbicidal ratio of 40% or higher and lower than 70%); Q: Galium spurium, herbicidal effect (criteria 0-5) (Galium spurium): 3 (Herbicidal ratio of 40% or higher and lower than 70%); b: directly sowed rice plant, effect on crop (criteria 0-5) (rice plant): 5 (Herbicidal ratio of 90% or more (almost completely withered)) |
| CCOC(=O)C(C(=O)Cc1ccccc1)C1CC(O)=C(c2c(C)cc(C)cc2C)C1=O (stereo not shown) [2-011] | 0 (Herbicidal ratio of 5% or lower (almost no effect)) | 0 (Herbicidal ratio of 5% or lower (almost no effect)) | 0 (Herbicidal ratio of 5% or lower (almost no effect)) | 0 (Herbicidal ratio of 5% or lower (almost no effect)) | 0 (Herbicidal ratio of 5% or lower (almost no effect)) | 0 (Herbicidal ratio of 5% or lower (almost no effect)) | 0 (Herbicidal ratio of 5% or lower (almost no effect)) | 0 (Herbicidal ratio of 5% or lower (almost no effect)) | 0 (Herbicidal ratio of 5% or lower (almost no effect)) | 0 (Herbicidal ratio of 5% or lower (almost no effect)) | 0 (Herbicidal ratio of 5% or lower (almost no effect)) | 0 (Herbicidal ratio of 5% or lower (almost no effect)) | 2 (Herbicidal ratio of 20% or higher and lower than 40%) | 0 (Herbicidal ratio of 5% or lower (almost no effect)) | 0 (Herbicidal ratio of 5% or lower (almost no effect)) | 0 (Herbicidal ratio of 5% or lower (almost no effect)) | 0 (Herbicidal ratio of 5% or lower (almost no effect)) | 0 (Herbicidal ratio of 5% or lower (almost no effect)) | 3 (Herbicidal ratio of 40% or higher and lower than 70%) |  |
| CCOC(=O)C(C(=O)c1ccccn1)C1CC(O)=C(c2c(C)cc(C)cc2C)C1=O (stereo not shown) [2-013] | 0 (Herbicidal ratio of 5% or lower (almost no effect)) | 0 (Herbicidal ratio of 5% or lower (almost no effect)) | 0 (Herbicidal ratio of 5% or lower (almost no effect)) | 1 (Herbicidal ratio of 5% or higher and lower than 20%) | 1 (Herbicidal ratio of 5% or higher and lower than 20%) | 0 (Herbicidal ratio of 5% or lower (almost no effect)) | 0 (Herbicidal ratio of 5% or lower (almost no effect)) | 0 (Herbicidal ratio of 5% or lower (almost no effect)) | 0 (Herbicidal ratio of 5% or lower (almost no effect)) | 0 (Herbicidal ratio of 5% or lower (almost no effect)) | 4 (Herbicidal ratio of 70% or higher and lower than 90%) | 5 (Herbicidal ratio of 90% or more (almost completely withered)) | 5 (Herbicidal ratio of 90% or more (almost completely withered)) | 4 (Herbicidal ratio of 70% or higher and lower than 90%) | 0 (Herbicidal ratio of 5% or lower (almost no effect)) | 1 (Herbicidal ratio of 5% or higher and lower than 20%) | 1 (Herbicidal ratio of 5% or higher and lower than 20%) | 1 (Herbicidal ratio of 5% or higher and lower than 20%) | 5 (Herbicidal ratio of 90% or more (almost completely withered)) |  |
| CON=C(C)CC1CC(OC(=O)c2ccccc2)=C(c2c(C)cc(C)cc2C)C1=O (stereo not shown) [1-010] | 5 (Herbicidal ratio of 90% or more (almost completely withered)) | 5 (Herbicidal ratio of 90% or more (almost completely withered)) | 5 (Herbicidal ratio of 90% or more (almost completely withered)) |  |  |  |  |  |  |  | 5 (Herbicidal ratio of 90% or more (almost completely withered)) | 5 (Herbicidal ratio of 90% or more (almost completely withered)) | 5 (Herbicidal ratio of 90% or more (almost completely withered)) | 5 (Herbicidal ratio of 90% or more (almost completely withered)) | 4 (Herbicidal ratio of 70% or higher and lower than 90%) | 4 (Herbicidal ratio of 70% or higher and lower than 90%) | 4 (Herbicidal ratio of 70% or higher and lower than 90%) | 4 (Herbicidal ratio of 70% or higher and lower than 90%) | 5 (Herbicidal ratio of 90% or more (almost completely withered)) | F (Digitaria ciliaris) herbicidal effect grade (Digitaria ciliaris [3]; [7]): 5 (Herbicidal ratio of 90% or more (almost completely withered)); G (Setaria viridis) herbicidal effect grade (Setaria viridis [4]; [7]): 3 (Herbicidal ratio of 40% or higher and lower than 70%); I (Avena fatua) herbicidal effect grade (Avena fatua; [7]): 5 (Herbicidal ratio of 90% or more (almost completely withered)); J (Alopecurus myosuroides) herbicidal effect grade (Alopecurus myosuroides; [7]): 5 (Herbicidal ratio of 90% or more (almost completely withered)); N (Amaranthus retroflexus) herbicidal effect grade (Amaranthus retroflexus; [7]): 5 (Herbicidal ratio of 90% or more (almost completely withered)); R (Veronica persica) herbicidal effect grade (Veronica persica; [7]): 4 (Herbicidal ratio of 70% or higher and lower than 90%); g (rapeseed) effect on crop grade (rapeseed; [7]): 4 (Herbicidal ratio of 70% or higher and lower than 90%) |
